Patent US20250073169A1, “POLYMER NANOPARTICLES VIA CONDENSED DROPLET POLYMERIZATION” (CORNELL UNIVERSITY, priority 2021, published 2025)

Experiment: Static contact angle of liquid monomer on coated substrate (goniometer)
Format: physicochemical
Procedure: Contact angle and aspect ratio analysis: Contact angle measurements were performed using a Ramé-Hart Model 500 contact angle goniometer. A pipette was used to dispense 5 μL of liquid HEMA, 4VP, and DVB onto the substrate for static contact angle measurements.

[1] = 5 μL liquid monomer on flattened PPFDA base layer, n=5

Compound | contact angle (5 μL liquid monomer on PDVB thin film coated substrate, n=4) [°] | contact angle [1] [°]
C=C(C)C(=O)OCCO [HEMA, 2-hydroxyethyl methacrylate] | 18.5±1.1 | 86.4±1.0
C=Cc1ccncc1 [4VP, 4-vinylpyridine] | – | 80.6±1.7
divinylbenzene [DVB] | – | 86.5±1.6
